{"source": "patent US12636261B2", "about": "“Treatment of inflammation initiated by the spinal cord injury, the traumatic brain injury, stroke, in inhibition of cerebral and spinal cord edema and of inflammation in neurodegenerative, immune mediated and infectious diseases of the central nervous system” (priority 2021, dated 2026)", "key": {"[1]": {"tested_on": "rat model of SCI (balloon crush spinal cord injury)", "assay": "Hind End Locomotor test in the rat model of SCI", "type": "in vivo, rat (Long Evans)", "settings": "5 mg/rat/day oral (2.5 mg twice a day in jello), treatment groups 2-8 weeks post-SCI; ANOVA", "procedure": "In the Hind End Locomotor test, performed once every day in unrestrained rats in the cage, the motor function is measured with movements of both hind legs scored 0-6 with 0=complete paralysis and 6=normal gait [Kwiecien et al, 2019, 2020b, 2020c].\n(§1) Healthy male Long Evans rats aged 12 weeks, 330-360 g, were offered a fruit flavored jello cube twice a day for 1 week prior to the surgery and were separated in individual cages 3 days before the surgery. Rats were induced with 5% isoflurane in 95% oxygen flowing at a rate of 1 liter per minute and maintained at 3.5% isoflurane in 96.5% oxygen. The anaesthetized rats had the skin on the back shaved and prepared for surgery with 70% ethyl alcohol and 10% iodine swabs. The skin was cut over the caudal thoracic and lumbar spine and spinal muscles dissected from the vertebral spine of the thoracic 10 (T10) vertebrum and the dorsal arches of this vertebrum removed. […] In the initial experiment designed to determine the anti-inflammatory effect of 0.2, 1.0 and 5 mg per day of xanthohumol (Sigma-Aldrich) after the surgery, the rats were offered a jello cube with half of the above dose twice a day, at 8-9 hours and 15-16 hours intervals, and the consumption of the jello cube was observed and recorded every day for 7 days. […]\n1. […] The motor function of the hind limbs was scored from 0-6 where 0=complete paralysis of both hind legs and 6=normal locomotion."}, "[2]": {"tested_on": "rat model of SCI (balloon crush spinal cord injury)", "assay": "Toe Pinch Withdrawal test in the rat model of SCI", "type": "in vivo, rat (Long Evans)", "settings": "5 mg/rat/day oral, treatment groups 2-8 weeks post-SCI; ANOVA", "from_the_text": "In the Toe Pinch Withdrawal test, performed once every day in rats held by the tail, the sensory function and the strength of both hind limbs are scored 0-6 with 0=complete loss of reaction to the toe pinch and 6=strong, normal withdrawal in both legs after the toe pinch [Kwiecien et al, 2019, 2020b, 2020c].\nas §1, with “oxygen.” for “oxygen. The anaesthetized rats had the skin on the back shaved and prepared for surgery with 70% ethyl alcohol and 10% iodine swabs. The skin was cut over the caudal thoracic and lumbar spine and spinal muscles dissected from the vertebral spine of the thoracic 10 (T10) vertebrum and the dorsal arches of this vertebrum removed.”\n2. The Toe Pinch Withdrawal test [Kwiecien et al, 2021c] was performed once a day in rats held by the tail in the cage and the presence and strength of both hind legs scored 0-6 where 0=no response to the toe pinch and 6=strong, normal withdrawal response to the toe pinch in both legs."}, "[3]": {"tested_on": "rat model of SCI (balloon crush spinal cord injury)", "assay": "Duration of Paralysis of the Urinary Bladder in SCI rats", "type": "in vivo, rat (Long Evans)", "settings": "5 mg/rat/day oral", "from_the_text": "as §1, with “removed. A 3Fogarty catheter was inserted via this laminectomy over the intact dura towards the head to place the caudal edge of the 3 mm long balloon at 1 cm rostral to the laminectomy.” for “removed.”\n4. The duration of the distention of the urinary bladder that required manual voiding until the normal function of the urinary bladder was restored, in days, was recorded."}, "[4]": {"assay": "Body Weight Change after the SCI surgery", "type": "in vivo, rat (Long Evans)", "settings": "5 mg/rat/day oral", "procedure": "The Body Weight Change after the SCI surgery is recorded every 3rd day [Kwiecien et al, 2019, 2020b 2021c].\nas §1, with “removed. A 3Fogarty catheter was inserted via this laminectomy over the intact dura towards the head to place the caudal edge of the 3 mm long balloon at 1 cm rostral to the laminectomy.” for “removed.”"}, "[5]": {"tested_on": "phagocytic macrophages in the cavity of injury (COI)", "assay": "Macrophage Count in the Cavity of Injury (COI), histology LFB+H&E", "type": "in vivo, rat (Long Evans)", "settings": "for macrophage numbers in the COI, % of the untreated controls (100%): 7 days post-SCI", "procedure": "The histologic examination is performed in the series of consecutive sections, […], of the spinal cord including the lesion, stained with luxol fast blue and counterstained with hematoxylin and eosin (LFB+H&E). A necrotic and hemorrhagic lesion deep in the spinal cord is infiltrated starting at the day 3, by numerous inflammatory, CD68+/CD163− macrophages that phagocytize myelin-rich necrotic debris and red blood cells. The numbers of macrophages rapidly increase and remain high for 4 weeks after SCI after which they gradually decline [Kwiecien et al, 2020a]. Within the first week post-SCI the deep lesion is transformed into a cavity of injury (COI) when it starts to accumulate excess water from edema in the surrounding spinal cord [Kwiecien et al, 2020a, 2021d]. The macrophage count is performed in a COI in the injured spinal cord of untreated and treated rats in a standardized fashion at fixed periods of time post-surgery to determine a degree of reduction of macrophage numbers related to a tested anti-inflammatory agent [Kwiecien et al, 2019; 2020a, 2020b, 2021c]. This reduction in numbers of macrophages plotted against such numbers in controls is reliably indicative of a therapeutic effect of an anti-inflammatory agent.\nHealthy male Long Evans rats aged 12 weeks, 330-360 g, were offered a fruit flavored jello cube twice a day for 1 week prior to the surgery and were separated in individual cages 3 days before the surgery. Rats were induced with 5% isoflurane in 95% oxygen flowing at a rate of 1 liter per minute and maintained at 3.5% isoflurane in 96.5% oxygen. The anaesthetized rats had the skin on the back shaved and prepared for surgery with 70% ethyl alcohol and 10% iodine swabs. The skin was cut over the caudal thoracic and lumbar spine and spinal muscles dissected from the vertebral spine of the thoracic 10 (T10) vertebrum and the dorsal arches of this vertebrum removed. A 3Fogarty catheter was inserted via this laminectomy over the intact dura towards the head to place the caudal edge of the 3 mm long balloon at 1 cm rostral to the laminectomy. The balloon was inflated with 15 µL of sterile saline for 3 minutes, then deflated and the catheter removed. The spinal muscles were closed with absorbable sutures over the laminectomy and the skin incision was closed with stainless steel staples. Before awakening, the rats were administered; 50 μL of a painkiller Anafen (ketoprofen, 100 mg/mL, Merial) subcutaneously for pain, and 50 µL of Baytril antibiotic (enrofloxacin 50 mg/mL, Bayer) intramuscular, and 3 mL of saline subcutaneous. In the initial experiment designed to determine the anti-inflammatory effect of 0.2, 1.0 and 5 mg per day of xanthohumol (Sigma-Aldrich) after the surgery, the rats were offered a jello cube with half of the above dose twice a day, at 8-9 hours and 15-16 hours intervals, and the consumption of the jello cube was observed and recorded every day for 7 days. Each treatment group had 5 rats. In the second phase of the experiment 1 jello cube alone or jello cube with 2.5 mg xanthohumol was offered twice a day for 1, 2, 4, 6, and 8 weeks. Each treatment group had 6-7 rats.\nAt a required experimental time point; 1, 2, 4, 6, or 8 weeks post-surgery, the SCI rats were overdosed with the sodium pentobarbital (80 mg/kg b.w.) administered intraperitoneally. When in deep plane of anaesthesia, the chest was cut open, 100 international units of heparin sodium injected into the left heart ventricle and a cannula with flowing lactated Ringer's solution inserted into the left ventricle while the right auricle was cut open. After the blood was washed out, the flow of the lactated Ringer's solution was replaced by that of phosphate buffered formalin and the carcass was fixed.\nThe spine was removed, postfixed in formalin overnight and then placed in formalin supplemented with 8% EDTA, pH 7.0, to decalcify the spinal vertebrae. The decalcifying solution was replaced by fresh one every 2 days for 2 weeks. […]"}, "[6]": {"tested_on": "SCI rats", "assay": "Toxicity observation in SCI rats under oral xanthohumol", "type": "in vivo", "settings": "twice a day, 5 mg per day (approx. 15 mg/kg), up to 8 weeks", "from_the_text": "as §1, with “removed. A 3Fogarty catheter was inserted via this laminectomy over the intact dura towards the head to place the caudal edge of the 3 mm long balloon at 1 cm rostral to the laminectomy. The balloon was inflated with 15 µL of sterile saline for 3 minutes, then deflated and the catheter removed.” for “removed.”"}, "[7]": {"settings": "cited from earlier work; for bioavailability: Wistar rats"}, "[8]": {"settings": "cited from earlier work"}, "[9]": {"tested_on": "rats", "settings": "cited from earlier work"}, "[10]": {"tested_on": "mice", "settings": "cited from earlier work"}, "[11]": {"settings": "cited from earlier work", "remark": "listed apart in the source"}}, "note": "Like-named read-outs stand apart in the source and are kept apart here."}
{"compound": "COc1cc(O)c(CC=C(C)C)c(O)c1C(=O)/C=C/c1ccc(O)cc1", "note": "[xanthohumol, 2′,4′,4-trihydroxy-6′-methoxy-3′-prenylchalcone]", "values": [{"measurement": "Hind End Locomotor test score (0-6) vs untreated rats", "setting": "[1]", "result": "significantly higher scores"}, {"measurement": "Toe Pinch Withdrawal test score (0-6) vs untreated rats", "setting": "[2]", "result": "statistically better"}, {"measurement": "recovery of the urinary bladder function vs untreated rats", "setting": "[3]; 4 weeks treatment group", "result": "significantly faster"}, {"measurement": "recovery of the urinary bladder function vs untreated rats", "setting": "[3]; 6 weeks treatment group", "result": "tendency for the paralyzed urinary bladder to recover faster than in controls"}, {"measurement": "body weight change vs untreated controls", "setting": "[4]; groups 1, 2 and 8 weeks post-SCI", "result": "no statistical difference"}, {"measurement": "body weight recovery post-surgery vs untreated controls", "setting": "[4]; groups treated for 4 and 6 weeks", "result": "recovered statistically sooner and to a greater degree"}, {"measurement": "macrophage numbers in the COI, % of the untreated controls (100%)", "setting": "[5]; 0.2 mg/rat/day oral, not statistically significant", "result": 73.7, "unit": "%"}, {"measurement": "macrophage numbers in the COI, % of the untreated controls (100%)", "setting": "[5]; 1.0 mg/rat/day oral, p=0.026", "result": 63.9, "unit": "%"}, {"measurement": "macrophage counts in the COI, % of the controls", "setting": "[5]; 5 mg/rat/day oral, 1 week post-SCI, second phase", "result": 57.0, "unit": "%"}, {"measurement": "macrophage counts in the COI, % of the controls", "setting": "[5]; 5 mg/rat/day oral, 2 weeks post-SCI", "result": 60.7, "unit": "%"}, {"measurement": "macrophage counts in the COI, % of the controls", "setting": "[5]; 5 mg/rat/day oral, 4 weeks post-SCI", "result": 14.1, "unit": "%"}, {"measurement": "macrophages in the COI on histologic sections (FIG. 7)", "setting": "[5]; 5 mg/rat/day oral, 6 and 8 weeks post-SCI", "result": "rare or absent"}, {"measurement": "macrophage counts in the COI, % of the controls", "setting": "[5]; 5 mg/rat/day oral, 6 weeks post-SCI", "result": 22.9, "unit": "%"}, {"measurement": "macrophage counts in the COI, % of the controls", "setting": "[5]; 5 mg/rat/day oral, 8 weeks post-SCI, not statistically different", "result": 32.7, "unit": "%"}, {"measurement": "macrophage numbers in the COI, % of the untreated controls (100%)", "setting": "[5]; 5.0 mg/rat/day oral, dose-response study, p=0.0013", "result": 53.8, "unit": "%"}, {"measurement": "toxicity of xanthohumol", "setting": "[6]", "result": "not observed"}, {"measurement": "half-life", "setting": "[7]; 10 mg/kg intravenously", "result": 7.67, "unit": "h"}, {"measurement": "bioavailability", "setting": "[7]; oral 40 mg/kg", "result": 1.16, "unit": "%"}, {"measurement": "bioavailability", "setting": "[7]; oral 200 mg/kg", "result": 0.53, "unit": "%"}, {"measurement": "bioavailability after oral administration", "setting": "[8]", "result": "approximately 1%"}, {"measurement": "toxic effect of daily oral administration", "setting": "[9]; 16.9 mg/kg body weight daily oral", "result": "no toxic effect"}, {"measurement": "toxicity after long administration of large doses", "setting": "[9]", "result": "no toxicity"}, {"measurement": "toxicity after long administration of large doses", "setting": "[10]", "result": "no toxicity"}, {"measurement": "solubility in water", "setting": "[11]", "result": "poorly"}]}
